This assay concerns the target T1, hSTING (Homo sapiens, UniProt Q86WV6, G230A/H232R/R293Q/R71H).
T1 construct: host or cells: THP1-Dual KO-IFNAR2 cells
Briefly: STING reporter assay (luciferase reporter) in THP1-Dual KO-IFNAR2 cells activated with 2′3′cGAMP. Format: cell-based. The conditions noted are these: 15 μM 2′3′cGAMP, 24 h, luciferase reporter activity. As for the experimental part: STING pathway activation by the compounds described herein is measured using THP1-Dual™ cells (KO-IFNAR2).
THP1-Dual™ KO-IFNAR2 Cells (obtained from invivogen) are maintained in RPMI, 10% FCS, 5 ml P/S, 2 mM L-glut, 10 mM Hepes, and 1 mM sodium pyruvate. Compounds are spotted in empty 384 well tissue culture plates (Greiner 781182) by Echo for a final concentration of […]. Cells are plated into the TC plates at 40 μL per well, 2×10E6 cells/mL. For activation with STING ligand, 2′3′cGAMP (MW 718.38, obtained from Invivogen), is prepared in Optimem media.
The following solutions are prepared for each 1×384 plate: • Solution A: 2 mL Optimem with one of the following stimuli: • 60 uL of 10 mM 2′3′cGAMP→150 μM stock • Solution B: 2 mL Optimem with 60 μL Lipofectamine 2000→Incubate 5 min at RT
2 mL of solution A and 2 ml Solution B is mixed and incubated for 20 min at room temperature (RT). 20 uL of transfection solution (A+B) is added on top of the plated cells, with a final 2′3′cGAMP concentration of 15 μM. The plates are then centrifuged immediately at 340 g for 1 minute, after which they are incubated at 37° C., 5% CO2, >98% humidity for 24 h. Luciferase reporter activity is then measured. EC50 values were calculated by using standard methods known in the art.
Luciferase Reporter Assay:
10 μL of supernatant from the assay is transferred to white 384-plate with flat bottom and squared wells. one pouch of QUANTI-Luc™ Plus is dissolved in 25 mL of water. 100 μL of QLC Stabilizer per 25 mL of QUANTI-Luc™ Plus solution was added. 50 μL of QUANTI-Luc™ Plus/QLC solution per well is then added. Luminescence is measured on a Platereader (e.g., Spectramax I3X (Molecular Devices GF3637001)).
Luciferase reporter activity is then measured. EC50 values are calculated by using standard methods known in the art.

pEC50: −log10 of the molar value.

T1 sequence (Q86WV6 whole entry R71H/G230A/H232R/R293Q): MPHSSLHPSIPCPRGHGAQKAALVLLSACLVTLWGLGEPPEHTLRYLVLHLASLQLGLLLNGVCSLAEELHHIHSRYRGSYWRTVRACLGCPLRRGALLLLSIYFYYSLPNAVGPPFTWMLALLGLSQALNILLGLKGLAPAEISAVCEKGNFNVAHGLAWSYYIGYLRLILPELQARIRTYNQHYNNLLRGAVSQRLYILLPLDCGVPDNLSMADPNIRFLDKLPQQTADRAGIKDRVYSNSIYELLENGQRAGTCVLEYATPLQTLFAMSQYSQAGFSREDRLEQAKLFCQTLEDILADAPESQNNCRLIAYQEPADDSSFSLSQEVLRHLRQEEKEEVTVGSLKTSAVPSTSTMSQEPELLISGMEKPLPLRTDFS

Consider `CCCCC1CCC(NC(=O)Nc2c[nH]c3ncccc23)CC1` (centres unmarked) [Compound 170], for which the pEC50 is 6.00 to 6.70.

Take `O=C(Nc1cccc(C(F)(F)F)c1)Nc1c[nH]c2ncccc12` [Compound 150]: the pEC50 was 5.30 to 6.00.

Turning to `O=C(Nc1c[nH]c2ncccc12)N1CC(c2ccccc2)C1` [Compound 289], the pEC50 is 4.00 to 5.30. For the molecule `O=C(Nc1cc(F)cc(F)c1)Nc1c[nH]c2ncc(F)cc12` [Compound 298], the pEC50 is 5.30 to 6.00.

`O=C(Nc1ccc(C2CCCCC2)nc1)Nc1c[nH]c2ccncc12` [Compound 315] had a pEC50 of 5.30 to 6.00. To `CCCCc1ccc(N(C)C(=O)Nc2c[nH]c3ncc(F)cc23)cc1` [Compound 246] belongs 5.30 to 6.00; to `O=C(Nc1c[nH]c2ncccc12)NC1Cc2ccccc2C1` [Compound 302], 4.00 to 5.30; to `O=C(Nc1ccc2ccncc2c1)Nc1c[nH]c2ncc(F)cc12` [Compound 287], 5.30 to 6.00. The result for `CC(C)(O)c1ccc(-c2cnc3[nH]cc(NC(=O)Nc4ccc(C(F)(F)F)cc4)c3c2)cc1` [Compound 209] reads 5.30 to 6.00; that for `O=C(Nc1ccc(C(F)(F)F)cc1)Nc1c[nH]c2cnc(-c3ccccc3)nc12` [Compound 180], 4.00 to 5.30. In the case of `O=C(Nc1ccc(C(F)(F)F)nc1)Nc1c[nH]c2cccnc12` [Compound 156], the pEC50 is 4.00 to 5.30.

As for `O=C(Nc1c[nH]c2ncc(F)cc12)NC1CCC(C(F)(F)F)CC1` (centres unmarked) [Compound 270], the pEC50 was 4.00 to 5.30. On to `CCCCc1ccc(NC(=O)Nc2c[nH]c3ncc(F)cc23)cc1` [Compound 275], for which the negative-log EC50 (pEC50) was 6.70 to 7.40. On to `O=C(Nc1ccc(C(F)(F)F)cc1)Nc1c[nH]c2c(F)cncc12` [Compound 165], for which the pEC50 was 6.00 to 6.70.

The molecule `CCc1ccc(NC(=O)Nc2c[nH]c3ncccc23)nc1` [Compound 169] had a pEC50 of 4.00 to 5.30. Regarding `O=C(Nc1ccc(C(F)(F)F)cc1)Nc1c[nH]c2ncc(-c3ccccc3)cc12` [Compound 143, 1-(5-phenyl-1H-pyrrolo[2,3-b]pyridin-3-yl)-3-(4-(trifluoromethyl)phenyl)urea], the pEC50 was 5.30 to 6.00. Molecule `O=C(Nc1ccc(F)cn1)Nc1c[nH]c2ncc(F)cc12` [Compound 280] had a pEC50 of 5.30 to 6.00.

`O=C(Nc1ccc(C(F)(F)F)cc1)Nc1c[nH]c2ncc(C3=CCOCC3)cc12` [Compound 212] had a pEC50 of 5.30 to 6.00. To `O=C(Nc1ccc2c(c1)CCCC2)Nc1c[nH]c2ncc(F)cc12` [Compound 296] belongs 6.70 to 7.40; to `O=C(Nc1cnc(-c2ccccc2)s1)Nc1c[nH]c2ncc(F)cc12` [Compound 295], 6.00 to 6.70; to `CC(C)(O)c1cccc(-c2ccnc3[nH]cc(NC(=O)Nc4ccc(C(F)(F)F)cc4)c23)c1` [Compound 205], 4.00 to 5.30. The molecule `Cc1nc2cc(NC(=O)Nc3c[nH]c4ncc(F)cc34)ccc2s1` [Compound 286] gave a pEC50 of 5.30 to 6.00.

For `O=C(Nc1c[nH]c2ncc(F)cc12)NC1CCC2(CCC2)CC1` [Compound 247], the pEC50 was 5.30 to 6.00. To `O=C(Nc1ccc(C(F)(F)F)nc1)Nc1c[nH]c2ncccc12` [Compound 257] belongs 4.00 to 5.30.

Turning to `CN(C(=O)Nc1c[nH]c2cccnc12)c1ccc(C(F)(F)F)cc1` [Compound 154], the pEC50 was 4.00 to 5.30. As to `CCCCC1CCC(NC(=O)Nc2c[nH]c3ncccc23)C1` (centres unmarked) [Compound 285], the pEC50 was 5.30 to 6.00. `CCc1cnc2[nH]cc(NC(=O)Nc3ccc(C(F)(F)F)cc3)c2c1` [Compound 268, 3-[5-ethyl-1H-pyrrolo[2,3-b]pyridin-3-yl]-1-[4-(trifluoromethyl)phenyl] urea] gave a pEC50 of 6.00 to 6.70.

`O=C(Nc1ccc(C2CCCCC2)cn1)Nc1c[nH]c2cccnc12` [Compound 326] gave a pEC50 of 6.00 to 6.70. To `O=C(Nc1ccc(C(F)(F)F)cc1)Nc1c[nH]c2ncc(Br)cc12` [Compound 147] belongs 6.70 to 7.40; to `O=C(Nc1ccc(C(F)(F)F)cc1)Nc1c[nH]c2c(Cl)ncnc12` [Compound 183], 4.00 to 5.30. The result for `CCCCC1CCC(NC(=O)Nc2c[nH]c3cnccc23)CC1` (centres unmarked) [Compound 314] reads 5.30 to 6.00; that for `O=C(Nc1ccc(C(F)(F)F)cc1)Nc1c[nH]c2ccc(-c3ccccc3)nc12` [Compound 328, 1-(5-phenyl-1H-pyrrolo[3,2-b]pyridin-3-yl)-3-(4-(trifluoromethyl)phenyl)urea], 4.00 to 5.30.

For `O=C(Nc1c[nH]c2cccnc12)NC1CCC(C(F)(F)F)CC1` (centres unmarked) [Compound 141], the pEC50 was 4.00 to 5.30.

In the case of `O=C(Nc1ccc(C(F)(F)F)cn1)Nc1c[nH]c2ccncc12` [Compound 319], the pEC50 is 5.30 to 6.00.

Molecule `O=C(Nc1ccc(C(F)(F)F)cc1)Nc1c[nH]c2cccnc12` [Compound 146] had a pEC50 of 5.30 to 6.00. The result for `Cc1cnc2[nH]cc(NC(=O)Nc3ccc(C(F)(F)F)cc3)c2c1` [Compound 163] reads 6.00 to 6.70; that for `O=C(Nc1c[nH]c2cccnc12)N1CCC2(CCCC2)CC1` [Compound 159, N-(1H-pyrrolo[3,2-b]pyridin-3-yl)-8-azaspiro[4.5]decane-8-carboxamide], 4.00 to 5.30; that for `CCCCC1CCC(NC(=O)Nc2c[nH]c3ncc(F)cc23)CC1` (centres unmarked) [Compound 273], 6.00 to 6.70. To `O=C(Nc1ccc(C(F)(F)F)cn1)Nc1c[nH]c2ncc(F)cc12` [Compound 138] belongs 6.00 to 6.70; to `O=C(Nc1ccc(C(F)(F)F)cn1)Nc1c[nH]c2ncccc12` [Compound 265], 6.00 to 6.70. With `O=C(Nc1c[nH]c2ncc(F)cc12)NC1CCC2(CCCCC2)CC1` [Compound 300], the pEC50 is 6.00 to 6.70.

`CN1CC=C(c2cnc3[nH]cc(NC(=O)Nc4ccc(C(F)(F)F)cc4)c3c2)CC1` [Compound 213] had a pEC50 of 4.00 to 5.30. `O=C(Nc1ccc2cnccc2c1)Nc1c[nH]c2ncc(F)cc12` [Compound 288] had a pEC50 of 4.00 to 5.30. With `CN1CC=C(c2ccnc3[nH]cc(NC(=O)Nc4ccc(C(F)(F)F)cc4)c23)CC1` [Compound 195], the pEC50 is 4.00 to 5.30. In the case of `O=C(Nc1c[nH]c2ncccc12)NC1CC(c2ccccc2)C1` (centres unmarked) [Compound 133], the pEC50 was 4.00 to 5.30. The molecule `O=C(Nc1ccc(C2CCCCC2)nc1)Nc1c[nH]c2ncc(F)cc12` [Compound 272] had a pEC50 of 6.70 to 7.40. The result for `CS(=O)(=O)c1ccc(-c2cnc3[nH]cc(NC(=O)Nc4ccc(C(F)(F)F)cc4)c3c2)cc1` [Compound 207] reads 4.00 to 5.30; that for `O=C(Nc1ccc(C(F)(F)F)nc1)Nc1c[nH]c2ncc(F)cc12` [Compound 281], 5.30 to 6.00. On to `O=C(Nc1ccc(C(F)(F)F)cc1)Nc1c[nH]c2ncc(-c3ccc(OCC4CC4)nc3)cc12` [Compound 211], for which the pEC50 was 6.00 to 6.70. The result for `N#Cc1cnc2[nH]cc(NC(=O)Nc3ccc(C(F)(F)F)cc3)c2c1` [Compound 151] reads 6.00 to 6.70; that for `O=C(Nc1ccc(C2CCCCC2)cn1)Nc1c[nH]c2cnccc12` [Compound 313], 5.30 to 6.00. To `O=C(Nc1ccc(C(F)(F)F)nc1)Nc1c[nH]c2ccncc12` [Compound 318] belongs 4.00 to 5.30; to `O=C(Nc1c[nH]c2ncccc12)NC1CCCc2ccccc21` (centres unmarked) [Compound 135], 4.00 to 5.30.

`O=C(Nc1ccc(C(F)(F)F)cc1)Nc1c[nH]c2cnccc12` [Compound 144] had a pEC50 of 5.30 to 6.00. With `CCCCC1CCC(NC(=O)Nc2c[nH]c3ccncc23)CC1` (centres unmarked) [Compound 317], the pEC50 is 6.00 to 6.70. To `O=C(Nc1cccc(C(F)(F)F)c1)Nc1c[nH]c2cnccc12` [Compound 149] belongs 4.00 to 5.30.

Source of the values: US11618749B2, “Compounds and compositions for treating conditions associated with STING activity” (IFM Due, Inc., priority 2018, dated 2023).
